Bridge positions count the residues as written; N and C are the ends. Ends that are not written are not given here. Peptide text beside a SMILES is read from it.
Key:
[1] = target: T1, trypsin (Bos taurus, UniProt P00760); assay: in vitro; conditions: for Remaining peak area (%)/Trypsin: 0 h
T1 sequence (P00760 24-246): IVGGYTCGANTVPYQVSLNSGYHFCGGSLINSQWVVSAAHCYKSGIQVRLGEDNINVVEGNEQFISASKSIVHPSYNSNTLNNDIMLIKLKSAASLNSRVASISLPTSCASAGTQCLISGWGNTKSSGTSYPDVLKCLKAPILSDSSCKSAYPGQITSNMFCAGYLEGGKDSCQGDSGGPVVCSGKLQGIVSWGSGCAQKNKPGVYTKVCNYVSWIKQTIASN
Procedure, shortened: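 Remaining RP-HPLC peak area tracks undigested peptide over time. Samples were quenched with 10% TFA at time points between 1.5 and 60 min during 37 °C digestion. Trypsin was added from a 0.05 μg/μL solution after 5 min of thermal equilibration.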

[2] = target: chymotrypsin (Bos taurus, UniProt P00766); assay: in vitro
Procedure, shortened: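 RP-HPLC peak area tracked intact peptide after 37 °C digestion with chymotrypsin (0.05 μg/μL solution, 5 min preincubation). Samples were withdrawn at 1.5-60.0 min and stopped with 10% TFA.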

[3] = rat, in vivo
Protocol: (§1) Rats were fasted for 12 hours with water ad libitum before the experiment. The animals were randomly divided into 4 groups (5 animals in each group). The normal control group was injected with normal saline solution, and the commercially available salmon Calcitonin (sCat) and synthetic Calcitonin analog (CalM) were injected subcutaneously. The capsule form Cal BT (1 umol/kg, p.o.) was administered by gavage.

[4] = system: rats; assay: Hypo-calcifying effect of salmon calcitonin and analogues, blood calcium concentration in rats; type: in vivo, rat; conditions: sCat and CalM subcutaneous, capsule form Cal BT 1 umol/kg p.o., 0-24 h
Protocol: FIG. 24. The blood calcium concentration percentage-time curve of rat.
as §1
Take blood from the inner canthus of rats at the predetermined time points: 0, 2, 3, 4, 6, 8, 12, and 24 h later, with at least 0.2 mL of blood taken each time. The blood sample was placed at 4° C. for stratification and centrifuged at 3000 rpm for 10 minutes. The serum was separated and measured for serum calcium ion concentration.
The serum calcium ion concentration at 0 h was considered as baseline, the blood calcium concentration at other time was converted into the percentage ratio of baseline. The blood calcium curve was drawn with time as the X axis and the percentage of blood calcium concentration (%) as the Y axis.

[5] = system: mouse ear swelling; assay: Croton oil mouse ear swelling, IL-17A inhibitory peptide administered subcutaneously; type: in vivo; conditions: subcutaneous, peptides 30 mg/kg, Secukinumab 5 mg/kg
Protocol: IL-17A is an inflammatory factor in many chronic inflammatory reactions. In order to quickly evaluate and analyze its anti-inflammatory effects, a mouse ear swelling model was first used for preliminary screening of anti-inflammatory activities. The experimental process is as follows. Kunming male mice (18-20 g, n=10) were labeled with picric acid. All mice in each group were coated with 10 μL croton oil on both sides of the right ear. Immediately after modeling, the positive drugs Secukinumab group (5 mg/kg), inhibitory peptides 17A, 17A-BT, 17A-CH, and 17A-EC (30 mg/kg) were subcutaneously injected. The model control group (Con) was injected with a corresponding volume of physiological saline. After causing inflammation for 4 hours, the mice in each group were killed for cervical dislocation, and then the ear pieces were punched in the symmetrical parts of the left and right ears with a hole punch. The weight was weighed and recorded. The swelling degree and swelling rate were calculated:
Swelling rate=((right ear mass−left ear mass)/left ear mass)*100%

[6] = target: T2, interaction of PCSK9-LDLR (Homo sapiens, UniProt Q8NBP7); assay: PCSK9-LDLR in vitro binding assay (inhibitory rate); conditions: in vitro
T2 construct: purchased MBL Company, Beijing, China CY-8150
Procedure, shortened: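 Polypeptide (final 50 μM) pre-incubated 20 min at room temperature with PCSK9 (final 75 ng/mL), then run in a PCSK9-LDLR binding kit read at OD450/540 nm. Inhibition rate calculated relative to a solvent control (water or DMSO) lacking polypeptide.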

[7] = system: P407-induced hyperlipidemia mice; assay: Subcutaneous injection of PCSK9 inhibitory peptide, serum total cholesterol in P407-induced hyperlipidemia mice; type: in vivo, mouse; conditions: for serum total cholesterol (TC) level after subcutaneous injection (in words): 2 μmol/kg single s.c., P407-induced hyperlipidemia mice
Procedure, shortened: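 ICR mice, fasted overnight, received intraperitoneal P407 at 500 mg/kg. After 24 h they received subcutaneous peptide at 2 μmol/kg in 20% PEG400; vehicle-treated and normal groups served as controls. Serum total cholesterol was measured at various times after dosing.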

[8] = system: P407 induced hyperlipidemia mice; assay: Duodenal injection of PCSK9 inhibitory peptide, serum total cholesterol in P407 induced hyperlipidemia mice; type: in vivo, mouse
Protocol: The experimental polypeptide sample was prepared using PEG400 with a final concentration of 20 μmol/kg and the final concentration of PEG400 is 50% (w/v). The control group was saline containing PEG400 (50%).
Normal ICR mice were fasted overnight with water ad libitum. The next day, all of the mice were intraperitoneally injected with poloxamer 407 (P407, 500 mg/kg) to establish a model of lipid metabolism disorder. Six mice were intraperitoneally injected with saline as a normal control (Nor). Normal feeding resumed after 2 hours. The model animals were randomly divided into model group (Con) and polypeptide groups according to body weight, and the blood was collected from tail tip (0 min). Then, the animals were anesthetized with ether for duodenal exposure surgery. At the same time, a sample or saline containing PEG400 was injected through the duodenum. Finally, the wound was sutured. The blood was collected from tail tip at 15, 30, 60, and 90 minutes after administration to determine the serum total cholesterol level.

[9] = isolated enzyme trypsin, pH 7.8
[10] = isolated enzyme chymotrypsin, pH 7.8, Remaining peak area (%)/chymotrypsin

## CC(C)C[C@H](NC(=O)CNC(=O)[C@@H]1CSSC[C@H](N)C(=O)N[C@@H](CO)C(=O)N[C@@H](CC(N)=O)C(=O)N[C@@H](CC(C)C)C(=O)N[C@@H](CO)C(=O)N[C@@H]([C@@H](C)O)C(=O)N1)C(=O)NCC(=O)N[C@@H](CCCCN)C(=O)N[C@@H](CC(C)C)C(=O)N[C@@H](CO)C(=O)N[C@@H](CCC(N)=O)C(=O)N[C@@H](CCC(=O)O)C(=O)N[C@@H](C)C(=O)N[C@@H](Cc1c[nH]cn1)C(=O)N[C@@H](CCCCN)C(=O)N[C@@H](CC(C)C)C(=O)N[C@@H](CCC(N)=O)C(=O)N[C@H](C(=O)N[C@@H](Cc1ccc(O)cc1)C(=O)N1CCC[C@H]1C(=O)N[C@@H](CCCNC(=N)N)C(=O)N[C@H](C(=O)N[C@@H](CC(N)=O)C(=O)N[C@H](C(=O)NCC(=O)N[C@@H](CO)C(=O)NCC(=O)N[C@H](C(=O)N1CCC[C@H]1C(=O)O)[C@@H](C)O)[C@@H](C)O)[C@@H](C)O)[C@@H](C)O [CalM] (H-CSNLSTCGLGKLSQEAHKLQTYPRTNTGSGTP-OH; disulfide 1-7)
[1]
  stability towards trypsin hydrolysis (in words): extremely unstable towards trypsin
  Remaining peak area (%)/Trypsin: 100.0 ± 0.0%
[1]; [9]
  remaining at 0.025 h, 60 μM: 9 ± 2.3%
  remaining at 0.05 h, 60 μM: 0%
  remaining at 0.075 h, 60 μM: 0%
  remaining at 0.1 h, 60 μM: 0%
  remaining at 0.15 h, 60 μM: 0%
[2]; isolated enzyme chymotrypsin, pH 7.8, prototype peptide remaining after chymotrypsin hydrolysis
  remaining at 1 h, 60 μM: ~4.9%
[3]
  Body weight (g) X ± SD End: 160.9 ± 4.7 g
  Body weight (g) X ± SD Start: 180.2 ± 6.8 g
  Changes of body weight (%): −10.71%

## CC[C@H](C)[C@@H]1NC(=O)[C@@H]2CCCN2C(=O)[C@@H]2CCCN2C(=O)[C@H]([C@@H](C)CC)NC(=O)[C@H](CO)NC(=O)[C@H](CCCCN)NC(=O)[C@H]([C@@H](C)O)NC(=O)[C@H](C)NC(=O)[C@H](CCCNC(=N)N)NC(=O)[C@H](C)NC(=O)[C@@H](NC(=O)CNC(=O)[C@@H]2CCCN2C(=O)[C@@H](NC(=O)CNC(=O)[C@H](CO)NC(=O)CNC(=O)[C@@H](NC(=O)[C@H](CC(N)=O)NC(=O)[C@@H](NC(=O)[C@H](CCCNC(=N)N)NC(=O)[C@@H]2CCCN2C(=O)[C@H](Cc2ccc(O)cc2)NC(=O)[C@@H](NC(=O)[C@H](CCC(N)=O)NC(=O)[C@H](CC(C)C)NC(=O)[C@H](CCCCN)NC(=O)[C@H](Cc2c[nH]cn2)NC(=O)[C@H](C)NC(=O)[C@H](CCC(=O)O)NC(=O)[C@H](CCC(N)=O)NC(=O)[C@H](CO)NC(=O)[C@H](CC(C)C)NC(=O)[C@H](CCCCN)NC(=O)CNC(=O)[C@H](CC(C)C)NC(=O)CNC(=O)[C@@H]2CSSC[C@H](N)C(=O)N[C@@H](CO)C(=O)N[C@@H](CC(N)=O)C(=O)N[C@@H](CC(C)C)C(=O)N[C@@H](CO)C(=O)N[C@@H]([C@@H](C)O)C(=O)N2)[C@@H](C)O)[C@@H](C)O)[C@@H](C)O)[C@@H](C)O)CSSC[C@@H](C(=O)N[C@@H](Cc2ccccc2)C(=O)O)NC1=O [Cal-BT]
[1]
  stability towards trypsin hydrolysis (in words): resistant to the corresponding protease degradation
  Remaining peak area (%)/Trypsin: 100.0 ± 0.0%
[1]; [9]
  remaining at 0.025 h, 60 μM: 84.2 ± 5.6%
  remaining at 0.05 h, 60 μM: 87.8 ± 1%
  remaining at 0.075 h, 60 μM: 71.4 ± 0.9%
  remaining at 0.1 h, 60 μM: 74.3 ± 3.4%
  remaining at 0.15 h, 60 μM: 77.1 ± 8.4%
  remaining at 0.25 h, 60 μM: 69.4 ± 6.5%
  remaining at 0.5 h, 60 μM: 69.5 ± 6.6%
  remaining at 1 h, 60 μM: 68.2 ± 8.4%
[2]
  stability towards chymotrypsin hydrolysis (in words): high tolerance to chymotrypsin
[2]; 0 h
  Remaining peak area (%)/chymotrypsin: 100.0 ± 0.0%
[2]; [10]
  remaining at 0.025 h, 60 μM: 86.3 ± 9%
  remaining at 0.05 h, 60 μM: 83.9%
  remaining at 0.075 h, 60 μM: 73.1 ± 1.7%
  remaining at 0.1 h, 60 μM: 71.8 ± 1.1%
  remaining at 0.15 h, 60 μM: 70 ± 3%
  remaining at 0.25 h, 60 μM: 61.3%
  remaining at 0.5 h, 60 μM: 58.9 ± 2.3%
  remaining at 1 h, 60 μM: 46 ± 1.3%
[4]
  blood calcium concentration (in words): did not effectively reduce the blood calcium concentration of rats within 24 h after administration
[4]; listed as Cal BT
  blood calcium concentration (in words): did not effectively reduce the concentration of calcium ions in rats
[3]
  Body weight (g) X ± SD End: 158.9 ± 3.2 g
  Body weight (g) X ± SD Start: 176.1 ± 5.1 g
  Changes of body weight (%): −9.80%

## Secukinumab: positive drug in the subcutaneous ear swelling test; anti IL-17A antibody
[5]; 4 hours after croton oil
  Swelling (%): 72.54 ± 25.32 %
[5]; vs model control
  Swelling inhibitory (%): 37.36%

## Trp-Glu-Glu-Tyr-Leu-Asp-Tyr-Val-Gly-Ile-Cys-Thr-Ala-Ser-Ile-Pro-Pro-Ile-Cys-Gln-Gly-Thr-Val-Phe-Thr-Ser (WEEYLDYVGICTASIPPICQGTVFTS; disulfide 11-19 (inferred)) [PCSK9_6EC]
[6]
  inhibitory activity on the interaction between PCSK9 and LDLR (in words): good inhibitory activity on the interaction between PCSK9 and LDLR
[6]; listed as SEQ ID NO: 231
  inhibitory activity on the interaction between PCSK9 and LDLR (in words): good inhibitory effects in vitro
[7]
  serum total cholesterol (TC) level after subcutaneous injection (in words): reduced serum TC level
[7]; listed as SEQ ID NO: 231
  serum total cholesterol (TC) level after subcutaneous injection (in words): excellent lowering lipid (total cholesterol) activities in vivo
[7]; serum, subcutaneous 2 μmol/kg, 15 min after administration, mean ± sd
  TC 15 min: 2438 ± 610 µg/mL
[7]; serum, subcutaneous 2 μmol/kg, 30 min after administration, mean ± sd
  TC 30 min: 2369 ± 574 µg/mL
[7]; serum, subcutaneous 2 μmol/kg, 60 min after administration, mean ± sd
  TC 60 min: 2345 ± 638 µg/mL
[7]; serum, subcutaneous 2 μmol/kg, 90 min after administration, mean ± sd
  TC 90 min: 2274 ± 586 µg/mL
[8]; 20 μmol/kg, P407 induced hyperlipidemia mice
  hypolipidemic activity after duodenal administration (in words): did not show hypolipidemic activity
[8]; serum, duodenal injection 20 μmol/kg, 15 min, mean ± sd
  TC 15 min: 3166 ± 343 µg/mL
[8]; serum, duodenal injection 20 μmol/kg, 30 min, mean ± sd
  TC 30 min: 2931 ± 673 µg/mL
[8]; serum, duodenal injection 20 μmol/kg, 60 min, mean ± sd
  TC 60 min: 3239 ± 515 µg/mL
[8]; serum, duodenal injection 20 μmol/kg, 90 min, mean ± sd
  TC 90 min: 3177 ± 443 µg/mL

Source: patent publication US20230416329A1, “A PEPTIDE WITH DISULFIDE BONDS AND INHIBITORY ACTIVITY AGAINST SERINE PROTEASES, DERIVED HYBRID PEPTIDES THEREOF, AND USES THEREOF” (INSTITUTE OF MATERIA MEDICA , CHINESE ACADEMY OF MEDICAL …, priority 2020, published 2023)
